Experiment [1] has as its target T1, IL-17A(FLAG-Tagged): IL-17RA(His-Tagged) binding (Homo sapiens, UniProt Q16552, K93Q). As to the kind of experiment: IL-17A(FLAG-tagged):IL-17RA(His-tagged) binding disruption Eu-HTRF assay, Protocol 1. The note with it: FLAG-IL-17A 2.5 nM; average if tested more than once. From the text: IL-17A(FLAG-Tagged): IL-17RA(His-Tagged) Binding Disruption Eu-HTRF Assay
An antibody directed against the FLAG tag of IL-17A (SEQ ID NO: 1) is labeled with the HTRF donor chromophore (Europium-cryptate). IL-17A is present as a dimer that is “locked into” this quaternary structure due to the formation of loop-spanning […] disulfide bridges. The construct of IL-17RA used in the assay excludes the […] portion of the receptor and is fused to a C-terminal 10×His tag (SEQ ID NO:2). An antibody directed against the His tag of the IL-17RA chimera is labeled with the HTRF acceptor chromophore (“D2”). The fluorescence-resonance energy transfer (FRET) depends on the vicinity of the donor chromophore to the acceptor, and interruption of the binding between the IL-17A and IL-17RA causes the reduction/loss of FRET. Therefore, this assay allows to evaluate the compound effect on the binding IL-17A and IL-17RA by monitoring the fluorescence intensity of donor vs acceptor. The assay was run using either Protocol 1 or Protocol 2 as described below.
Protocol 1. 40 nl of 2-fold serial diluted compound solution for total 22 dilution points is added into each well of a 1536-well, white, low-volume, non-binding plate (Greiner #782904), then 2 μl of FLAG tagged IL-17A at 2×final concentration (2.5 nM) in solution of PBS+0.01% Triton-X100 is added to each well. The assay plate is briefly centrifuged then incubated for 1 h at rt. A mixed solution is prepared containing 2×5 nM 10HIS×IL-17RA, 2×2.5 nM Eu-anti-FLAG (CISBIO), 2×5 nM D2-anti-HIS (CISBIO) in PBS+0.01% Triton-X100+200 mM Potassium Fluoride (Sigma 60238) and 2 μl of mix is added to each well of the assay plate. The plate is briefly centrifuged then incubated for 2 h at rt. The HTRF intensities at the wavelength of donor (620 nm) and acceptor (665 nm) are measured using BMG Pherastar. The ratio between intensities at two wavelengths is calculated and plotted against the compound concentration and the data is fitted to a one-site competition model to yield IC50 of the compound.

In experiment [2] the test system is IL-17A-induced G-CSF production in human normal keratinocyte (NHK). Description: NHK assay: IL-17A-induced G-CSF production in normal human keratinocytes. Type of experiment: cell-based. The conditions noted are these: 24 h, IL-17A 5 ng/mL, G-CSF by HTRF, average if tested more than once. A digest of the protocol: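 Compound titrations are first mixed with recombinant human IL-17A for 1 h at room temperature. The mixture goes onto adult normal human keratinocytes (final IL-17A 5 ng/mL, 5% FBS, 0.2% DMSO) for 24 h at 37 °C. Secreted G-CSF is then measured by HTRF and IC50 fitted.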
In general terms: TR-FRET usually uses a lanthanide donor and a delayed reading to cut background.

For experiment [3], the target named is T1, IL-17A(FLAG-Tagged): IL-17RA(His-Tagged) binding. Description: IL-17A(FLAG-tagged):IL-17RA(His-tagged) binding disruption Eu-HTRF assay, Protocol 2. The note with it: FLAG-IL-17A 1 nM; average if tested more than once. A digest of the protocol: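 FLAG-tagged IL-17A (1 nM final) was preincubated with compound (2-fold serial dilutions, 22 points) for 1 h at rt in PBS + 0.01% Triton X-100. 10×His-IL-17RA, Eu-anti-FLAG and D2-anti-His in buffer containing KF were then added for 2 h at rt. IC50 came from the 665/615 nm HTRF ratio fitted to a one-site competition model.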

Some results are limits rather than exact numbers.

T1 sequence (Q16552 with tags, fused parts or gaps K93Q): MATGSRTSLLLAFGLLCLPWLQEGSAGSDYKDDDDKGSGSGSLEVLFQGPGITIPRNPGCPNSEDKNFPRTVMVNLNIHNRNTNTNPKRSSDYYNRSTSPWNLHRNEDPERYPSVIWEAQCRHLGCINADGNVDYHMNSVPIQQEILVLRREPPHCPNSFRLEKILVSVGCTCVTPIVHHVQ

For orientation: IC50 means the concentration needed to halve the response being measured. High values mean weaker potency in that assay, low ones greater potency in that assay. Consider `CC1(F)CNC(=O)N(Cc2cnn3cc([C@@H](NC(=O)c4nonc4C4CC4)C4CCC(F)(F)CC4)nc3c2)C1` (single isomer, unassigned) [Example 1, 4-Cyclopropyl-N—((S)-(4,4-difluorocyclohexyl)(7-(((R*)-5-fluoro-5-methyl-2-oxotetrahydropyrimidin-1(2H)-yl)methyl)imidazo[1,2-b]pyridazin-2-yl)methyl)-1,2,5-oxadiazole-3-carboxamide], for which the half-maximal inhibitory concentration (IC50) in experiment [1] is < 50 nM; in experiment [2] (Homo sapiens, Keratinocyte), > 100 nM.
Take `CC1(F)CNC(=O)N(Cc2cnn3cc([C@@H](NC(=O)c4nonc4C4CC4)C4CCC(F)(F)CC4)nc3c2)C1` (single isomer, unassigned) [Example 2, 4-Cyclopropyl-N—((S)-(4,4-difluorocyclohexyl)(7-(((S*)-5-fluoro-5-methyl-2-oxotetrahydropyrimidin-1(2H)-yl)methyl)imidazo[1,2-b]pyridazin-2-yl)methyl)-1,2,5-oxadiazole-3-carboxamide]: the IC50 in experiment [1] is 50 to 100 nM; in experiment [2], > 100 nM.
In the same order, the values of `O=C(N[C@H](c1cn2ncc(CN3CC(C(F)(F)F)CNC3=O)cc2n1)C1CCC(F)(F)CC1)c1nonc1C1CC1` (single isomer, unassigned) [Example 5, 4-Cyclopropyl-N—((S)-(4,4-difluorocyclohexyl)(7-(((S*)-2-oxo-5-(trifluoromethyl)tetrahydropyrimidin-1(2H)-yl)methyl)imidazo[1,2-b]pyridazin-2-yl)methyl)-1,2,5-oxadiazole-3-carboxamide] are < 50 nM and 50 to 100 nM.
With `O=C(N[C@H](c1cn2ncc(CN3CC(C(F)(F)F)CNC3=O)cc2n1)C1CCC(F)(F)CC1)c1nonc1C1CC1` (single isomer, unassigned) [Example 6, 4-Cyclopropyl-N—((S)-(4,4-difluorocyclohexyl)(7-(((R*)-2-oxo-5-(trifluoromethyl)tetrahydropyrimidin-1(2H)-yl)methyl)imidazo[1,2-b]pyridazin-2-yl)methyl)-1,2,5-oxadiazole-3-carboxamide], the IC50 in experiment [1] is > 100 nM; in experiment [2] (Homo sapiens, Keratinocyte), > 100 nM.
On to `COCC(c1cnn2cc([C@H](COC(C)(C)C(F)(F)F)NC(=O)c3nonc3C)nc2c1)N1CC(F)(F)CNC1=O` (single isomer, unassigned) [Example 15, N—((R)-1-(7-((S*)-1-(5,5-Difluoro-2-oxotetrahydropyrimidin-1(2H)-yl)-2-methoxyethyl)imidazo[1,2-b]pyridazin-2-yl)-2-((1,1,1-trifluoro-2-methylpropan-2-yl)oxy)ethyl)-4-methyl-1,2,5-oxadiazole-3-carboxamide], for which the 50% inhibitory concentration (IC50) in experiment [1] was < 50 nM; in experiment [2] (Homo sapiens, Keratinocyte) it was < 50 nM.
For `CC1CNC(=O)N(Cc2cnn3cc([C@@H](NC(=O)c4nonc4C4CC4)C4CCC(F)(F)CC4)nc3c2)C1` (single isomer, unassigned) [Example 28, 4-Cyclopropyl-N—((S)-(4,4-difluorocyclohexyl)(7-(((S*)-5-methyl-2-oxotetrahydropyrimidin-1(2H)-yl)methyl)imidazo[1,2-b]pyridazin-2-yl)methyl)-1,2,5-oxadiazole-3-carboxamide], the half-inhibitory concentration (IC50) in experiment [1] was < 50 nM; in experiment [2] (Homo sapiens, Keratinocyte), > 100 nM.
Take `CC1CNC(=O)N(Cc2cnn3cc([C@@H](NC(=O)c4nonc4C4CC4)C4CCC(F)(F)CC4)nc3c2)C1` (single isomer, unassigned) [Example 29, 4-Cyclopropyl-N—((S)-(4,4-difluorocyclohexyl)(7-(((R*)-5-methyl-2-oxotetrahydropyrimidin-1(2H)-yl)methyl)imidazo[1,2-b]pyridazin-2-yl)methyl)-1,2,5-oxadiazole-3-carboxamide]: the IC50 in experiment [1] and in experiment [2] was > 100 nM in each case.
Take `CC(c1cnn2cc([C@@H](NC(=O)c3nonc3C3CC3)C3CCC(F)(F)CC3)nc2c1)N1CC(F)(F)CNC1=O` (single isomer, unassigned) [Example 92, 4-Cyclopropyl-N—((S)-(7-((S*)-1-(5,5-difluoro-2-oxotetrahydropyrimidin-1(2H)-yl)ethyl)imidazo[1,2-b]pyridazin-2-yl)(4,4-difluorocyclohexyl)methyl)-1,2,5-oxadiazole-3-carboxamide]: the concentration for half-maximal inhibition (IC50) in experiment [1] is > 100 nM; in experiment [2] (Homo sapiens, Keratinocyte), > 100 nM.
As to `Cc1nonc1C(=O)N[C@H](c1cn2ncc(C(C)N3CC(F)(F)CNC3=O)cc2n1)C1CCC(F)(F)CC1` (single isomer, unassigned) [Example 93, N—((S)-(7-((S*)-1-(5,5-Difluoro-2-oxotetrahydropyrimidin-1(2H)-yl)ethyl)imidazo[1,2-b]pyridazin-2-yl)(4,4-difluorocyclohexyl)methyl)-4-methyl-1,2,5-oxadiazole-3-carboxamide], the IC50 is > 100 nM in experiment [1] and > 100 nM in experiment [2] (Homo sapiens, Keratinocyte).
Take `COc1nonc1C(=O)N[C@@H](CCC(C)(C)C(F)(F)F)c1cn2ncc([C@@H](COC3CC3)N3CC(F)(F)CNC3=O)cc2n1` [Example 122, N—((S)-1-(7-((S)-2-Cyclopropoxy-1-(5,5-difluoro-2-oxotetrahydropyrimidin-1(2H)-yl)ethyl)imidazo[1,2-b]pyridazin-2-yl)-5,5,5-trifluoro-4,4-dimethylpentyl)-4-methoxy-1,2,5-oxadiazole-3-carboxamide]: the half-maximal inhibitory concentration (IC50) in experiment [3] is < 50 nM; in experiment [2] (Homo sapiens, Keratinocyte) it was < 50 nM.
Regarding `COC[C@H](c1cnn2cc([C@@H](NC(=O)c3nonc3C)C3CCC(F)(F)CC3)nc2c1)N1CC(F)(F)C(F)(F)CNC1=O` [Example 123, N—((S)-(4,4-Difluorocyclohexyl)(7-((S)-2-methoxy-1-(5,5,6,6-tetrafluoro-2-oxo-1,3-diazepan-1-yl)ethyl)imidazo[1,2-b]pyridazin-2-yl)methyl)-4-methyl-1,2,5-oxadiazole-3-carboxamide], the 50% inhibitory concentration (IC50) in experiment [3] is < 50 nM; in experiment [2] (Homo sapiens, Keratinocyte) it was 50 to 100 nM.
In the same order, the values of `COC[C@H](c1cnn2cc([C@@H](NC(=O)c3nonc3OC)C3CCC(F)(F)CC3)nc2c1)N1CC(F)(F)C(F)(F)CNC1=O` [Example 124, N—((S)-(4,4-Difluorocyclohexyl)(7-((S)-2-methoxy-1-(5,5,6,6-tetrafluoro-2-oxo-1,3-diazepan-1-yl)ethyl)imidazo[1,2-b]pyridazin-2-yl)methyl)-4-methoxy-1,2,5-oxadiazole-3-carboxamide] are < 50 nM and 50 to 100 nM.
In the same order, the values of `COC[C@H](c1cnn2cc([C@@H](NC(=O)c3nonc3C(C)(F)F)C3CCC(F)(F)CC3)nc2c1)N1CC(F)(F)CNC1=O` [Example 127, N—((S)-(7-((S)-1-(5,5-Difluoro-2-oxotetrahydropyrimidin-1(2H)-yl)-2-methoxyethyl)imidazo[1,2-b]pyridazin-2-yl)(4,4-difluorocyclohexyl)methyl)-4-(1,1-difluoroethyl)-1,2,5-oxadiazole-3-carboxamide] are < 50 nM and < 50 nM.
Regarding `COC[C@H](c1cnn2cc([C@@H](NC(=O)c3nonc3CC(F)(F)F)C3CCC(F)(F)CC3)nc2c1)N1CC(F)(F)CNC1=O` [Example 130, N—((S)-(7-((S)-1-(5,5-Difluoro-2-oxotetrahydropyrimidin-1(2H)-yl)-2-methoxyethyl)imidazo[1,2-b]pyridazin-2-yl)(4,4-difluorocyclohexyl)methyl)-4-(2,2,2-trifluoroethyl)-1,2,5-oxadiazole-3-carboxamide], the IC50 in experiment [3] was < 50 nM; in experiment [2] (Homo sapiens, Keratinocyte), < 50 nM.
For the compound “N—((S)-1-(7-((S)-2-Cyclopropoxy-1-(5,5-difluoro-2-oxotetrahydropyrimidin-1(2H)-yl-4,4,6,6-d4)ethyl)imidazo[1,2-b]pyridazin-2-yl)-5,5,5-trifluoro-4,4-dimethylpentyl)-1,2,5-oxadiazole-3-carboxamide trifluoroacetate [Example 131]”, the concentration for half-maximal inhibition (IC50) in experiment [3] was < 50 nM; in experiment [2], > 100 nM.

These data come from patent publication US12173007B2, “Imidazopyridazine IL-17 inhibitor compounds” (Janssen Pharmaceutica NV, priority 2021, dated 2024).
